Laboratory results as given in ChEMBL document CHEMBL5634135, “Design, synthesis, and biological evaluation of quinoline-piperazine/pyrrolidine derivatives as possible antileishmanial agents” (Eur J Med Chem, 2023).
Calls of active or inactive are those of the source. The rule behind the calls is not given here.

Tests used:
[1] = Safety index, ratio of CC50 for cytotoxicity against mouse J774.A1 cells to IC50 for antileishmanial activity against amastigote form of luciferase expressing Leishmania donovani MHOM/IN/80/Dd8 infected in mouse J774.A1; type: toxicity, cell-based; conditions: read-out: Ratio CC50/IC50
[2] = Cytotoxicity against mouse J774.A1 cells assessed as reduction in cell viability incubated for 48 hrs by MTT assay; type: toxicity, cell-based
Leishmania donovani [3] = experiment: Antileishmanial activity against amastigote form of luciferase expressing Leishmania donovani MHOM/IN/80/Dd8 infected in mouse J774.A1 cells assessed as inhibition of parasite growth measured after 72 hrs by luciferase reporter gene assay; type: functional, organism-based; conditions: MHOM/IN/80/Dd8, J774.A1, 72 h
Leishmania donovani [4] = experiment: Antileishmanial activity against Leishmania donovani assessed as inhibition of parasite growth; type: functional, organism-based
Leishmania donovani [5] = experiment: Antileishmanial activity against amastigote form of luciferase expressing Leishmania donovani MHOM/IN/80/Dd8 infected in mouse J774.A1 cells assessed as inhibition of parasite growth at 50 uM measured after 72 hrs by luciferase reporter gene assay; type: functional, organism-based
[6] = Toxicity against golden hamster infected with amastigote form of Leishmania donovani assessed as skin rashes at 50 mg/kg, ip administered for 5 days; type: organism-based, Mesocricetus auratus; conditions: in vivo, 120 h, time 5 day
Leishmania donovani [7] = experiment: Antileishmanial activity against amastigote form of Leishmania donovani infected in golden hamster assessed as reduction in parasite load in spleen at 50 mg/kg, ip administered for 5 days and measured on day 7 post-drug treatment by Giemsa staining based analysis; type: functional; conditions: 288 h, time 12 day
[8] = Half life in golden hamster at 50 mg/kg, ip measured for 24 hrs by LC-MS/MS analysis; type: ADME, organism-based, Mesocricetus auratus; conditions: in vivo
[9] = Cmax in golden hamster at 50 mg/kg, ip measured for 24 hrs by LC-MS/MS analysis; type: ADME, organism-based, Mesocricetus auratus; conditions: in vivo
[10] = Clearance in golden hamster at 50 mg/kg, ip measured for 24 hrs by LC-MS/MS analysis; type: ADME, organism-based, Mesocricetus auratus; conditions: in vivo
[11] = MRT in golden hamster at 50 mg/kg, ip measured for 24 hrs by LC-MS/MS analysis; type: ADME, organism-based, Mesocricetus auratus; conditions: in vivo
[12] = AUC in golden hamster at 50 mg/kg, ip measured for 24 hrs by LC-MS/MS analysis; type: ADME, organism-based, Mesocricetus auratus; conditions: in vivo
[13] = Toxicity against golden hamster infected with amastigote form of Leishmania donovani assessed as animal's death at 50 mg/kg, ip administered for 5 days; type: organism-based, Mesocricetus auratus; conditions: in vivo, 120 h, time 5 day
[14] = Tmax in golden hamster at 50 mg/kg, ip measured for 24 hrs by LC-MS/MS analysis; type: ADME, organism-based, Mesocricetus auratus; conditions: in vivo
[15] = Volume of distribution in golden hamster at 50 mg/kg, ip measured for 24 hrs by LC-MS/MS analysis; type: ADME, organism-based, Mesocricetus auratus; conditions: in vivo
Leishmania donovani [16] = experiment: Antileishmanial activity against amastigote form of Leishmania donovani infected in golden hamster assessed as reduction in parasite load in spleen at 50 mg/kg, ip administered for 5 days and measured on day 28 post-dug treatment by Giemsa staining based analysis; type: functional; conditions: 792 h, time 33 day
[17] = Toxicity against golden hamster infected with amastigote form of Leishmania donovani assessed as discomfort at 50 mg/kg, ip administered for 5 days; type: organism-based, Mesocricetus auratus; conditions: in vivo, 120 h, time 5 day
Leishmania infantum [18] = experiment: Antileishmanial activity against amastigote form of Leishmania infantum BCN150 overexpressing iRFP assessed as inhibition of parasite growth measured after 52 hrs; type: functional, organism-based; conditions: BCN150, 52 h
Leishmania infantum [19] = experiment: Antileishmanial activity against promastigote form of Leishmania infantum BCN150 overexpressing iRFP assessed as inhibition of parasite growth measured after 52 hrs; type: functional, organism-based; conditions: BCN150, 52 h

Structure (SMILES) | selectivity ratio [1] | CC50 at 48 h [2] | IC50 (Leishmania donovani [3]) | inhibition (Leishmania donovani [5]) | also measured
OC(COc1ccc(-c2cc(-c3ccccc3)c3ccccc3n2)cc1)CN1CCN(c2ccccc2)CC1 (stereo not drawn) | 3.98 | 21.5 µM | 5.39 µM |  | 
NC(CC(=O)N1CC(CO)C(c2ccc(Cl)cc2)C1)Cc1ccc(Cl)cc1 (stereo not drawn) |  |  |  |  | IC50 (Leishmania donovani [4]): 0.093 µM
OC(COc1ccc(-c2cc(-c3ccccc3Cl)c3cc(Cl)ccc3n2)cc1)CN1CCN(c2ccccc2F)CC1 (stereo not drawn) |  |  |  | inactive | 
OC(COc1ccc(-c2cc(-c3ccccc3)c3cc(Cl)ccc3n2)cc1)CN1CCN(c2cccc(Cl)c2Cl)CC1 (stereo not drawn) |  |  |  | inactive | 
OC(COc1ccc(-c2cc(-c3ccccc3)c3ccccc3n2)cc1)Cn1cncn1 (stereo not drawn) |  |  |  | inactive | 
Cc1ccc2c(-c3ccccc3)cc(-c3ccc(OCC(O)CN4CCCC4)cc3)nc2c1 (stereo not drawn) |  |  |  | inactive | 
Cc1ccc(Cl)cc1N1CCN(CC(O)COc2ccc(-c3cc(-c4ccccc4Cl)c4cc(Cl)ccc4n3)cc2)CC1 (stereo not drawn) |  |  |  | inactive | 
Cc1ncc([N+](=O)[O-])n1CC(O)COc1ccc(-c2cc(-c3ccccc3)c3ccccc3n2)cc1 (stereo not drawn) |  |  |  | inactive | 
OC(COc1ccc(-c2ccc3ccccc3n2)cc1)CN1CCCC1 (stereo not drawn) | 6.15 | 54.7 µM | 8.89 µM |  | 
OC(COc1ccc(-c2cc(-c3ccccc3)c3ccccc3n2)cc1)CN1CCN(c2cccc(Cl)c2Cl)CC1 (stereo not drawn) |  |  |  | inactive | 
OC(COc1ccc(-c2cc(-c3ccccc3Cl)c3cc(Cl)ccc3n2)cc1)CN1CCN(c2ccccc2Cl)CC1 (stereo not drawn) |  |  |  | inactive | 
NC(=O)C1CCN(CC(O)COc2ccc(-c3cc(-c4ccccc4)c4ccccc4n3)cc2)CC1 (stereo not drawn) |  |  |  | inactive | 
OC(COc1ccc(-c2cc(-c3ccccc3)c3ccccc3n2)cc1)CN1CCN(c2ccccc2F)CC1 (stereo not drawn) |  |  |  | inactive | 
OC(COc1ccc(-c2cc(-c3ccccc3)c3ccc(Br)cc3n2)cc1)CN1CCCC1 (stereo not drawn) | 9.34 | 49.7 µM | 5.32 µM |  | 
O=[N+]([O-])c1ccc2nc(-c3ccc(OCC(O)CN4CCN(c5cccc(Cl)c5Cl)CC4)cc3)cc(-c3ccccc3)c2c1 (stereo not drawn) |  |  |  | inactive | 
CCOC(=O)N1CCN(CC(O)COc2ccc(-c3cc(-c4ccccc4)c4cc(Cl)ccc4n3)cc2)CC1 (stereo not drawn) |  |  |  | inactive | 
O=C(c1ccco1)N1CCN(CC(O)COc2ccc(-c3cc(-c4ccccc4)c4cc(Cl)ccc4n3)cc2)CC1 (stereo not drawn) | 7.1 | 57.8 µM | 8.13 µM |  | 
OC(COc1ccc(-c2cc(-c3ccccc3Cl)c3cc(Cl)ccc3n2)cc1)CN1CCN(c2ccccn2)CC1 (stereo not drawn) | 7.52 | 41.9 µM | 5.56 µM |  | 
OC(COc1ccc(-c2cc(-c3ccccc3F)c3cc(Cl)ccc3n2)cc1)CN1CCCC1 (stereo not drawn) | 9.41 | 22.7 µM | 2.4 µM |  | 

Structure (SMILES) | selectivity ratio [1] | CC50 at 48 h [2] | IC50 (Leishmania donovani [3]) | inhibition (Leishmania donovani [5]) | also measured
O=[N+]([O-])c1ccc2nc(-c3ccc(OCC(O)CN4CCCC4)cc3)cc(-c3ccccc3)c2c1 (stereo not drawn) |  |  |  | inactive | 
OC(COc1ccc(-c2ccc3ccccc3n2)cc1)CN1CCN(c2cccc(Cl)c2Cl)CC1 (stereo not drawn) |  |  |  | inactive | 
Cc1ccc(Cl)cc1N1CCN(CC(O)COc2ccc(-c3cc(-c4ccccc4)c4ccccc4n3)cc2)CC1 (stereo not drawn) |  |  |  | inactive | 
COc1ccc(N2CCN(CC(O)COc3ccc(-c4cc(-c5ccccc5Cl)c5cc(Cl)ccc5n4)cc3)CC2)cc1 (stereo not drawn) |  |  |  | inactive | 
OC(COc1ccc(-c2cc(-c3ccccc3Cl)c3cc(Cl)ccc3n2)cc1)CN1CCN(c2cccc(Cl)c2Cl)CC1 (stereo not drawn) | 11.8 | 63.5 µM | 5.39 µM |  | Activity [6]: Non-Toxic; inhibition in vivo at 50 mg/kg (Leishmania donovani [7]): 40.7%; half-life [8]: 5 h; Cmax [9]: 9930 ng/mL; CL/F [10]: 25.8 mL/min/kg; MRT [11]: 5.56 h; AUC at 24 h [12]: 32900 ng·h/mL; Activity [13]: Non-Toxic; Tmax [14]: 2 h; Vd [15]: 11.25 L/kg; inhibition in vivo at 50 mg/kg (Leishmania donovani [16]): 56.3%; Activity [17]: Non-Toxic
OC(COc1ccc(-c2cc(-c3ccccc3F)c3cc(Cl)ccc3n2)cc1)CN1CCN(c2cccc(Cl)c2Cl)CC1 (stereo not drawn) |  |  |  | inactive | 
OC(COc1ccc(-c2cc(-c3ccccc3)c3ccc(Br)cc3n2)cc1)CN1CCN(c2cccc(Cl)c2Cl)CC1 (stereo not drawn) |  |  |  | inactive | 
OC(COc1ccc(-c2cc(-c3ccccc3)c3ccccc3n2)cc1)CN1CCN(c2ccccn2)CC1 (stereo not drawn) | 3.88 | 27.2 µM | 7.01 µM |  | 
Cc1ccc2c(-c3ccccc3)cc(-c3ccc(OCC(O)CN4CCN(c5cccc(Cl)c5Cl)CC4)cc3)nc2c1 (stereo not drawn) |  |  |  | inactive | 
O=C(c1ccco1)N1CCN(CC(O)COc2ccc(-c3cc(-c4ccccc4)c4ccccc4n3)cc2)CC1 (stereo not drawn) | 2.64 | 21.8 µM | 8.22 µM |  | 
OC(COc1ccc(-c2cc(-c3ccccc3)c3cc(Cl)ccc3n2)cc1)CN1CCN(c2ccccc2)CC1 (stereo not drawn) |  |  |  | inactive | 
OC(COc1ccc(-c2cc(-c3ccccc3)c3ccccc3n2)cc1)CN1CCCC1 (stereo not drawn) | 4.73 | 20.8 µM | 4.38 µM |  | 
O=C(c1ccco1)N1CCN(CC(O)COc2ccc(-c3cc(-c4ccccc4Cl)c4cc(Cl)ccc4n3)cc2)CC1 (stereo not drawn) |  |  |  | inactive | 
OC(COc1ccc(-c2cc(-c3ccccc3)c3ccccc3n2)cc1)Cn1ccnc1 (stereo not drawn) | 10.1 | 34 µM | 3.37 µM |  | 
OC(COc1ccc(-c2cc(-c3ccccc3)c3cc(Cl)ccc3n2)cc1)CN1CCCC1 (stereo not drawn) | 10.3 | 21.4 µM | 2.09 µM |  | Activity [6]: Non-Toxic; inhibition in vivo at 50 mg/kg (Leishmania donovani [7]): 27.8%; half-life [8]: 4.67 h; Cmax [9]: 17600 ng/mL; CL/F [10]: 9.5 mL/min/kg; MRT [11]: 6.35 h; AUC at 24 h [12]: 85000 ng·h/mL; Activity [13]: Non-Toxic; Tmax [14]: 2 h; Vd [15]: 3.88 L/kg; inhibition in vivo at 50 mg/kg (Leishmania donovani [16]): 49.3%; Activity [17]: Non-Toxic
COc1ccccc1N1CCN(C(=O)CN(Cc2ccccc2)c2ccc(Cl)cc2)CC1 |  |  |  |  | IC50 (Leishmania infantum [18]): 44.1 µM; IC50 (Leishmania infantum [19]): 3.61 µM
CCCCCCCCCCCCCCCCOP(=O)([O-])OCC[N+](C)(C)C [MILTEFOSINE] | 5.76 |  | 9.25 µM |  | 
OC(COc1ccc(-c2cc(-c3ccccc3Cl)c3cc(Cl)ccc3n2)cc1)CN1CCN(c2ccccc2)CC1 (stereo not drawn) |  |  |  | inactive | 
Cc1cc(-c2ccc(OCC(O)CN3CCN(c4cccc(Cl)c4Cl)CC3)cc2)nc2ccccc12 (stereo not drawn) |  |  |  | inactive | 
